Assay results as given in patent US20080260876A1, “Garlic Extract Compositions, Uses And Preparations Thereof” (priority 2005, published 2008).

Columns and labels:
[1] = tested on: Podosphaera xanthii (syn. Sphaerotheca fuliginea); assay: Foliar spray on powdery mildew-infected cucumber plants; conditions: for Percentage of reduction of cucumber powdery mildew: Table 5, 1/500 (w/v) in water
Procedure: Compositions 1 to 4 (Table 1) were applied by foliar spray 7 to 10 days after the inoculation of cucumber plants with powdery mildew spores (infected with 3-4×10^4 spores/mL of Podosphaera xanthii (syn. Sphaerotheca fuliginea)).
Each composition was sprayed once on cucumber leaves and disease assessment was performed after 3, 6, 8 and 12 days. […] For each composition, the assay was repeated three times and the results illustrated in Table 2 represent the average of these three assays.
As previously indicated, some garlic-based compositions are described in U.S. Pat. No. 6,231,865. Particular attention is paid to Samples 1 to 4 disclosed in column 2 of this document.

[2] = tested on: Oidium neolycopersici; assay: Semi-commercial greenhouse trial, tomato powdery mildew; type: in vivo
Procedure: Surface-sterilized tomato seeds (cv. Trust) were sown in rock wool cubes and fertilized daily with a standard nutrient solution. Seedlings were grown for 4 wk on a greenhouse bench at 21-24° C. with a 16 h photoperiod and transplanted (at the early flower stage) into rook wool in 13.5 L plastic bags perforated on the upper face in order to insert two rock wool cubes per bag. Plants at the 12-15 leaf stage were inoculated by rubbing a piece of tomato leaf heavily infected by Oidium neolycopersici onto leaf 7. At the onset of the first powdery mildew colonies (after 7-10 days), plants were sprayed with each formulation or with sulphur (the currently applied fungicide in tomato greenhouses) while controls were sprayed with water. The treatments were arranged in a randomized complete block design with 6 plants per treatment and three replications. All treatments with the garlic compositions were repeated once a week.
The treatments included: 1) Dehydrated garlic extracts-chitosan lactate (composition 1); 2) Dehydrated garlic extracts alone (composition 2); 3) chitosan lactate alone (composition 3); 4) sulphur; 5) water; and 6) water+vegetable oil (composition 4).
Disease severity was assessed three and six days after each treatment and evaluated as percentage of leaf area covered by powdery mildew. The assessments were made on a “low” leaf level (about leaf 3), a “middle” leaf level (leaves 6 and 9) and a “high” leaf level (about leaf 12) on three leaves for each level. For each treatment, […] yield was evaluated on 3 plants per replication. Data were analyzed by analysis of variance using the SAS procedure (SAS Inst., Inc., Cary, N.C.). The LSMEANS option was used to generate the probability of difference between all the variables in the study. Single degrees of freedom orthogonal contrasts were used to compare effects of the composition vs. chitosan lactate alone, the composition vs. water or water and oil, and the composition vs. sulphur. It is of note that powdery mildew on tomato is much less aggressive than it is on cucumber.

[3] = 3 plants of tomato, cv. Trust, 14 weeks after harvest

For `CCCCCCCCCCCCOS(=O)(=O)[O-].[Na+]` [Sodium dodecyl sulfate], the “Percentage of reduction of cucumber powdery mildew” value ([1]; 3 days) was 100%, the “Percentage of reduction of cucumber powdery mildew” value ([1]; 6 days) was 100% and the “Percentage of reduction of cucumber powdery mildew” value ([1]; 8 days) was 100%. The “Percentage of reduction of cucumber powdery mildew” value ([1]; 12 days) was 95% and the “Phytotoxicity on cucumber plants” value ([1]; days following the application) was “phytoxicity developed”.

`S1SSSSSSS1` [Sulphur] was tested, and the “Average fruit weight, class 1” value [2, 3] was 164 ± 3 g, the “Total fruit yield, class 1” value [2, 3] was 16.3 ± 1.1 Kg/m^2 and the “Total number of fruits, class 1” value [2, 3] was 100 ± 5.0 tomatos/m^2. For the same molecule, the “Disease incidence after 14 weeks (% of infection)” value ([2]; percentage of leaf area covered by powdery mildew, tomato cv. Trust) was 0.28 ± 0.08 % of infection and the “Reduction of the incidence of powdery mildew in tomato (disease control)” value ([2]; tomato greenhouse trial) was about 100%.
